Reference: patent US11767298B2, “Substituted benzimidazoles as inhibitors of transforming growth factor-β kinase” (Duke University, priority 2016, dated 2023)
“Also recorded” adds a separate entry of the source.

Experiments:
TAK1 = TAK1 (Homo sapiens, UniProt O43318); experiment: Kinase profiling (Dundee), TAK1; format: biochemical
Method: (§1) Kinase selectivity profiling. The selectivity profile of HS-206 to inhibit mammalian kinases was tested against a panel of 140 kinases at a single concentration of 10 μM. Tests were performed using a radiolabeld (^33P-ATP) filter-binding assay at the International Centre for Kinase Profiling at the University of Dundee, UK (http://www.kinase-screen.mrc.ac.uk/).
(§2) This panel contains members of all major kinase families, including tyrosine kinases (TK), tyrosine kinase-like (TKL), sterile serine/threonine (STE), and CDK/MAPK/GSK/CLK (CMGC). […] For these kinases, IC50 values were determined (Table 1).

[1] = test system: K63-linked ubiquitination; experiment: Western blot for K63-linked ubiquitination in Plasmodium blood stage; format: cell-based, P. falciparum; conditions: 0.001-100 μM, 24 hr, ring-stage blood stage parasites
Method: P. falciparum asexual blood-stage culture. P. falciparum 3D7 isolate was maintained under standard conditions in complete culturing medium [10.44 g/L RPMI 1640 (Invitrogen), 5.94 g/L HEPES (Invitrogen), 50 mg/L hypoxanthine (Sigma), 2.02 g/L sodium bicarbonate (Sigma), 5 g/L albuMAX II (Invitrogen), 25 mg/L gentamicin (Sigma), pH 7.2]. Parasite cultures were supplied with human red blood cells (Gulf Coast Regional Blood Center) at 1% hematocrit. To obtain synchronous cultures, Plasmodium parasites (at least 50% parasites were at the early-ring stage) were pelleted at 300×g for 7 min using a low brake setting and treated with 25 volume 5% D-sorbitol (Sigma) at 37° C. for 10 min. Treated parasites were then harvested and washed with 25 volume of complete culturing medium using the aforementioned centrifugation protocol, and diluted with the complete medium to 1% hematocrit to maintain the parasite culture at 37° C. and 5% CO2.
Protein extraction and Western blot for K63-linked ubiquitination in Plasmodium blood stage. […] Total protein lysates were heated in SDS loading buffer for 5 min at 80° C., analyzed on 4-20% Tris-Glycine polyacrylamide gels (Novex, Life Technologies) and subsequently transferred to nitrocellulose membranes. […]

MINK1 = MINK1 (Homo sapiens, UniProt Q8N4C8); experiment: Kinase profiling (Dundee), MINK1; format: biochemical; conditions: 10 μM
Method: as §1, §2

P. berghei EEFs = experiment: Immunofluorescence analysis of P. berghei EEFs in Huh7 cells; format: cell-based
Method: Immunofluorescence analysis of EEFs. For immunofluorescence analysis of EEFs, Huh7 cells were fixed with 4% paraformaldehyde for 10 min at room temperature (RT), washed thrice with PBS, permeabilized with cooled methanol for 10 min at −20° C. and blocked with 3% BSA in PBS for 30 min at RT. Thereafter, cells were incubated with a primary antibody, mouse anti-PbHSP70 (clone 2E6 1:1000) diluted in blocking buffer overnight at 4° C. Following incubation, samples were washed with PBS and incubated for 1 hr at RT with a secondary antibody, goat anti-mouse AlexaFluor 488 (1:400, Life Technologies). Finally, nuclei were stained with DAPI for 15 min at RT. For evaluation of fluorescence intensity from EEFs after infection with GFP-expressing P. berghei sporozoites, DAPI nucleus staining was performed following cell fixation. After five washes with PBS, ˜40 μl PBS was left in wells and images were acquired on a Zeiss Axio Observer widefield fluorescence microscope.
To further investigate the effect of compound 1 during malaria's liver stage, immunofluorescence assays were performed. Infected Huh7 cells were treated with 10 μM or 30 μM compound 1 for various period of time ranging from 0-24 h post-infection (hpi), 24-48 hpi and 0-48 hpi, and subsequently labeled with P. berghei HSP70 antibodies at 48 hpi. […] EEF size as compared to DMSO treated cells at all time periods tested (One-way ANOVA P<0.0001). The number of P.b. EEFs was not affected by 10 μM compound 1 as compared to DMSO treatment (FIG. 4B; One-way ANOVA P=0.0804). Similarly, treatment of infected cells with 30 μM compound 1 led to increased P.b. EEF size when added either for 0-24 hpi or 24-48 hpi. (FIGS. 4C and 4E; One-way ANOVA P<0.0001). […] Moreover, total fluorescence signal from GFP-expressing P.b. EEFs decreased with compound 1 when added for a period of 48 h post-infection. […] EEF size was increased by 10 μM compound 1 as compared to DMSO treated cells.

MDA-MB-231 = experiment: Viability and proliferation assays on breast cancer cell lines; format: cell-based; conditions: 48 h and 72 h
[2] = test system: TAK1 downstream signaling (IKK, p38, NFκB) in Hela cells; experiment: TNFα dependent signaling in Hela cells; format: cell-based
Method: In order to investigate the effects of HS-206 on cellular signaling, MDA-MB-231 and Hela cells were pretreated with 10 μM HS-206 for 2 h and stimulated with TNFα (FIG. 8).

Chain of TAK1 (O43318 with tags, fused parts or gaps limits assumed): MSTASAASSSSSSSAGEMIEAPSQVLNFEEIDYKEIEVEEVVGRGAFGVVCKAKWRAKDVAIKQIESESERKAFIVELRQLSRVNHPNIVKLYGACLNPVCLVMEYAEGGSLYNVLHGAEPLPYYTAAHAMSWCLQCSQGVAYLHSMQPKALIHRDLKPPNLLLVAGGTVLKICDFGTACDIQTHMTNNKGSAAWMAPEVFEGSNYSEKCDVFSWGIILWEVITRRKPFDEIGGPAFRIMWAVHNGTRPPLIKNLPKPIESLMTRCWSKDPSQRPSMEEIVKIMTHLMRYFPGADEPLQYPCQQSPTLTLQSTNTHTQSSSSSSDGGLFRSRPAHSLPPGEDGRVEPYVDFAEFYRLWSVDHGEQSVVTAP
Chain of MINK1 (Q8N4C8 whole entry): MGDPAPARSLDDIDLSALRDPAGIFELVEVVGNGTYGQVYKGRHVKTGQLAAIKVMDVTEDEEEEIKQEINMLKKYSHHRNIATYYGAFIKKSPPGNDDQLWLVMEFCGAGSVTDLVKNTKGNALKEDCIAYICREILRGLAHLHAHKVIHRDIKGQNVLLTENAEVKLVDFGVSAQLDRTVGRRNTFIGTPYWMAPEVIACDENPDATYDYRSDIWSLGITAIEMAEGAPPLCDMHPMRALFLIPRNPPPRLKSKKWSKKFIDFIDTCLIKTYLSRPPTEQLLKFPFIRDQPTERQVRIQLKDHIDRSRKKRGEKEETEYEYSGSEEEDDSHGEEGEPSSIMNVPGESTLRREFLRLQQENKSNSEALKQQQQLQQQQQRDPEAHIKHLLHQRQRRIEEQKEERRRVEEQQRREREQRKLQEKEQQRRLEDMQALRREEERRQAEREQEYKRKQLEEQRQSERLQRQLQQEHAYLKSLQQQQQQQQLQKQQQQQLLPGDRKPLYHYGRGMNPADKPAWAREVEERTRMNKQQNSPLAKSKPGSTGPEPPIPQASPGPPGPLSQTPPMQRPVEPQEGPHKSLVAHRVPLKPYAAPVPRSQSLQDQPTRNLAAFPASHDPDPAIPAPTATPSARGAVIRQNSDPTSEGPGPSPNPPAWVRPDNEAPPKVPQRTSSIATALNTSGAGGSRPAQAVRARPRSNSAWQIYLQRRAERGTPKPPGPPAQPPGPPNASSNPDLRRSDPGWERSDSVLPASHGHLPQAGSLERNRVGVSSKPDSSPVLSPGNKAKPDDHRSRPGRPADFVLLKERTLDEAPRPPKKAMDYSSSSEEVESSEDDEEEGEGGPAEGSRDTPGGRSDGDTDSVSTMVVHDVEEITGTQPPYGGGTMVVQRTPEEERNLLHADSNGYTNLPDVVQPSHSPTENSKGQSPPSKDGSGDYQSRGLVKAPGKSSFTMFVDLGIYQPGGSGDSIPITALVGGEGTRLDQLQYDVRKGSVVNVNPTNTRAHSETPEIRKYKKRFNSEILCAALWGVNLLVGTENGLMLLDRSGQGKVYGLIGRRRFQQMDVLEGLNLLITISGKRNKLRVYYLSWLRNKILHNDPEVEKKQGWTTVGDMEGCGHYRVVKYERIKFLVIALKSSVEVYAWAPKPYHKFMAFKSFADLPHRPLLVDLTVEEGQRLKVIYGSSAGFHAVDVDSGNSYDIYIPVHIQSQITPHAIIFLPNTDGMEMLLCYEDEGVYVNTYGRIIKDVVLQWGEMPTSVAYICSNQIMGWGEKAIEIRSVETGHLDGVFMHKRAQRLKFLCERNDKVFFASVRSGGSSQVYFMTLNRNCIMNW

CCCn1c(NC(=O)c2cccc(C(N)=O)c2)nc2ccccc21 [HS-206 (1), (E)-N-(1-Propyl-1,3-dihydro-2H-benzo[d]imidazol-2-ylidene)isophthalamide]
IC50 (TAK1): 9.5 ± 2 nM | inhibition at 10 µM (TAK1; 10 μM): > 90% | levels of K63-linked ubiquitinated proteins [1]: dose-dependent decrease | inhibition at 10 µM (MINK1): > 90% | P.b. EEF size (P. berghei EEFs; 10 μM, 0-24, 24-48 and 0-48 hpi, Huh7): significantly increased | number of P.b. EEFs (P. berghei EEFs; 10 μM, Huh7): not affected | number of P.b. EEFs (P. berghei EEFs; 30 μM, added 0-24 hpi or 0-48 hpi): decreased | P.b. EEF size (P. berghei EEFs; 30 μM, added 0-24 hpi or 24-48 hpi, Huh7): increased | number of P.b. EEFs (P. berghei EEFs; 30 μM, treatment from 24-48 hpi): did not significantly decreased | total fluorescence signal from GFP-expressing P.b. EEFs (P. berghei EEFs; 10 and 30 μM, 48 h post-infection): decreased | cell proliferation (MDA-MB-231): significant reduction in cell proliferation; also recorded: inhibits cell proliferation in a dose-dependent manner | TNFα dependent signaling (activation of IKK and p38) ([2]; 10 μM, 2 h pretreatment, TNFα stimulation): inhibited activation of IKK and p38; also recorded: inhibits TNFα dependent signaling | dose-dependent inhibition of signaling upon TNFα stimulation ([2]; Hela cells): inhibits p38 and NFκB signaling in a dose-dependent manner; also recorded: dose-dependent inhibition of JNK and NFκB signaling
